According to the RepoRT retention time repository:
Structures can show the parent of a compound that is named as a salt.

assay: RP, Waters CORTECS UPLC C18, 100 × 2.1 mm, 1.6 µm, 40 °C, 0.4 mL/min, estimated dead time 0.55 min; A: water + 0.1% formic acid, pH 3; B: acetonitrile + 0.1% formic acid, pH 3; gradient (min/%B) 0/5 1.12/5 6.41/99.5 10.01/99.5; details: stereoisomer not certain

Question: For `CNC(=O)N(C)c1nc2ccccc2s1` [Methabenzthiazurone], which LC retention time is on record?
Answer: Its LC retention time is 4.12 min.

Question: Which LC retention time does the source give for `CNCCc1c[nH]c2ccccc12` [N-METHYLTRYPTAMINE] here?
Answer: Its LC retention time is 2.54 min.

Question: For `Cn1cnc2c(ncn2C2OC(CO)C(O)C2O)c1=N` (stereo not given) [1-METHYLADENOSINE], which LC retention time is on record?
Answer: The LC retention time was 0.965 min.

Question: With `CCCOCC(=Nc1ccc(Cl)cc1C(F)(F)F)n1ccnc1` [Triflumizol] as the compound, how does the LC retention time read?
Answer: Its LC retention time is 5.16 min.

Question: Which LC retention time does the source give for `CCCCCCCCCCCCCC(=O)OC(CC(=O)[O-])C[N+](C)(C)C` [Myristoyl-L-carnitine] here?
Answer: The LC retention time was 5.13 min.

Question: Which LC retention time does the source give for `CCCSP(=O)(OCC)Oc1ccc(Br)cc1Cl` (stereo not given) [Profenofos] here?
Answer: The LC retention time was 5.85 min.

Question: Which LC retention time does the source give for `Cc1ccc(N=c2sccn2C)c(C)c1` [Cymiazol hydrochloride] here?
Answer: Its LC retention time is 3.22 min.

Question: Which LC retention time does the source give for `CNC(=N[N+](=O)[O-])NCC1CCOC1` (stereo not given) [Dinotefuran] here?
Answer: Its LC retention time is 2.2 min.

Question: With `Cc1ncc2c(c1O)C(=O)OC2` [4-Pyridoxolactone] as the compound, how does the LC retention time read?
Answer: The LC retention time was 0.792 min.

Question: With `CSCCC(NC(C)=O)C(=O)O` (stereo not given) [N-ACETYLMETHIONINE] as the compound, how does the LC retention time read?
Answer: Its LC retention time is 2.34 min.

Question: Which LC retention time does the source give for `CC1NCCc2cc(O)c(O)cc21` (stereo not given) [SALSOLINOL] here?
Answer: The LC retention time was 0.749 min.

Question: For `CNC(=O)CSP(=S)(OC)OC` [Dimethoate], which LC retention time is on record?
Answer: The LC retention time was 3.27 min.

Question: Which LC retention time does the source give for `Cc1ncc(CO)c(C(=O)O)c1O` [4-PYRIDOXATE] here?
Answer: Its LC retention time is 0.768 min.

Question: Which LC retention time does the source give for `Cc1cc2nc3c(=O)[nH]c(=O)nc-3n(CC(O)C(O)C(O)COP(=O)(O)OP(=O)(O)OCC3OC(n4cnc5c(N)ncnc54)C(O)C3O)c2cc1C` (stereo not given) [FAD] here?
Answer: The LC retention time was 2.34 min.

Question: With `CC(CCC(=O)NCC(=O)O)C1CCC2C3CC(O)C4CC(O)CCC4(C)C3CCC12C` (stereo not given) [Glycohyodeoxycholic acid] as the compound, how does the LC retention time read?
Answer: The LC retention time was 4.08 min.

Question: Which LC retention time does the source give for `CC12CCC(=O)C=C1CCC1C2C(O)CC2(C)C1CCC2(O)C(=O)CO` (stereo not given) [CORTISOL] here?
Answer: Its LC retention time is 3.67 min.

Question: For `CC12CCC(=O)C=C1CCC1C2C(=O)CC2(C)C1CCC2(O)C(=O)CO` (stereo not given) [CORTISONE], which LC retention time is on record?
Answer: The LC retention time was 3.69 min.

Question: For `O=C(O)c1ccc(O)c(O)c1` [3,4-DIHYDROXYBENZOATE], which LC retention time is on record?
Answer: Its LC retention time is 1.66 min.

Question: With `O=[N+]([O-])c1cc(C(F)(F)F)c(Cl)c([N+](=O)[O-])c1Nc1ncc(C(F)(F)F)cc1Cl` [Fluazinam] as the compound, how does the LC retention time read?
Answer: The LC retention time was 5.97 min.

Question: With `Cn1c(=O)c2c(ncn2C)n(C)c1=O` [CAFFEINE] as the compound, how does the LC retention time read?
Answer: Its LC retention time is 2.52 min.

Question: With `COCC(=O)N(c1c(C)cccc1C)N1CCOC1=O` [Oxadixyl] as the compound, how does the LC retention time read?
Answer: The LC retention time was 3.8 min.

Question: For `CC1(C)CCC(=Cc2ccc(Cl)cc2)C1(O)Cn1cncn1` (stereo not given) [Triticonazole], which LC retention time is on record?
Answer: The LC retention time was 4.76 min.

Question: With `CCCCCCCCCCCCC[n+]1cccc(S(=O)(=O)[O-])c1` [C13-APS] as the compound, how does the LC retention time read?
Answer: Its LC retention time is 5.19 min.

Question: Which LC retention time does the source give for `CC1(O)CCOC(=O)C1` (racemic) [(±)-Mevalonolactone] here?
Answer: Its LC retention time is 0.963 min.

Question: With `COP(=S)(OC)Oc1c(Cl)cc(C)cc1Cl` [Tolclosof methyl] as the compound, how does the LC retention time read?
Answer: The LC retention time was 5.72 min.

Question: With `CCCCC(C#N)(Cn1cncn1)c1ccc(Cl)cc1` (stereo not given) [Myclobutanil] as the compound, how does the LC retention time read?
Answer: Its LC retention time is 4.93 min.

Question: For `C[Si](Cn1cncn1)(c1ccc(F)cc1)c1ccc(F)cc1` [Flusilazole], which LC retention time is on record?
Answer: Its LC retention time is 5.06 min.

Question: With `CC(CCCC(C)C1CCC2C3C(O)CC4=CC(=O)CCC4(C)C3CCC12C)C(=O)O` (stereo not given) [7-Hydroxy-3-oxo-Cholest-4-en-26-oic Acid] as the compound, how does the LC retention time read?
Answer: The LC retention time was 5.53 min.

Question: With `CNC(=O)C=C(C)OP(=O)(OC)OC` [Monocrotophos] as the compound, how does the LC retention time read?
Answer: The LC retention time was 2.65 min.

Question: For `CCC1CCCC(OC2CCC(N(C)C)C(C)O2)C(C)C(=O)C2=CC3C(C=CC4CC(OC5OC(C)C(OC)C(OC)C5OC)CC43)C2CC(=O)O1` (stereo not given) [Spinosad A & D], which LC retention time is on record?
Answer: The LC retention time was 4.76 min.

Question: Which LC retention time does the source give for `NCCc1ccc(O)cc1` [TYRAMINE] here?
Answer: Its LC retention time is 0.755 min.

Question: For `OCCc1c[nH]c2ccccc12` [INDOLE-3-ETHANOL], which LC retention time is on record?
Answer: Its LC retention time is 3.05 min.

Question: Which LC retention time does the source give for `O=C(O)Cc1c[nH]c2ccccc12` [3-Indoleacetic acid] here?
Answer: Its LC retention time is 3.4 min.

Question: For `C[C@H](CCC(=O)O)[C@H]1CC[C@H]2[C@@H]3CC[C@@H]4CC(=O)CC[C@]4(C)[C@H]3CC[C@]12C` [3-Oxo-5β-cholanoic Acid], which LC retention time is on record?
Answer: Its LC retention time is 6.05 min.

Question: For `O=C(NC(=O)c1c(F)cccc1F)Nc1ccc(OC(F)(F)C(F)OC(F)(F)F)c(Cl)c1` (stereo not given) [Novaluron], which LC retention time is on record?
Answer: Its LC retention time is 5.71 min.
